Laboratory results from patent US11911393B2, “Non-catalytic substrate-selective p38alpha-specific MAPK inhibitors with endothelial-stabilizing and anti-inflammatory activity, and methods of use thereof” (University of Maryland, Baltimore, priority 2016, dated 2024).

Tested on: TNFα-induced gene expression in HMVECLs
Experiment: RNASeq of TNFα-induced gene expression
Assay type: cell-based, human
Details: 100 μM UM101, 10 μM SB203580

C[S+]([O-])c1ccc(-c2nc(-c3ccncc3)c(-c3ccc(F)cc3)[nH]2)cc1 (centres unmarked) [SB203580, reference compound]
bin (gene expression response pattern): MAP2K6 (HMVECLs, TNFα): 1 | bin (gene expression response pattern): MMP9 (HMVECLs, TNFα): 3 | bin (gene expression response pattern): MUC4 (HMVECLs, TNFα): 3 | bin (gene expression response pattern): NEURL3 (HMVECLs, TNFα): 5 | bin (gene expression response pattern): NIPAL4 (HMVECLs, TNFα): 5 | bin (gene expression response pattern): NOG (HMVECLs, TNFα): 5 | bin (gene expression response pattern): NUAK1 (HMVECLs, TNFα): 5 | bin (gene expression response pattern): NUAK2 (HMVECLs, TNFα): 5 | bin (gene expression response pattern): OR2I1P (HMVECLs, TNFα): 3 | bin (gene expression response pattern): PALMD (HMVECLs, TNFα): 5 | bin (gene expression response pattern): PCDH17 (HMVECLs, TNFα): 5 | bin (gene expression response pattern): PCLO (HMVECLs, TNFα): 5 | bin (gene expression response pattern): PDE7B (HMVECLs, TNFα): 5 | bin (gene expression response pattern): PDK4 (HMVECLs, TNFα): 5 | bin (gene expression response pattern): PGF (HMVECLs, TNFα): 5 | bin (gene expression response pattern): PLA1A (HMVECLs, TNFα): 3 | bin (gene expression response pattern): PRICKLE1 (HMVECLs, TNFα): 5 | bin (gene expression response pattern): PRKCH (HMVECLs, TNFα): 5 | bin (gene expression response pattern): PRRG4 (HMVECLs, TNFα): 3 | bin (gene expression response pattern): PTGER4P2 (HMVECLs, TNFα): 5 | bin (gene expression response pattern): RASSF9 (HMVECLs, TNFα): 5 | bin (gene expression response pattern): RGCC (HMVECLs, TNFα): 5 | bin (gene expression response pattern): RIMS1 (HMVECLs, TNFα): 5 | bin (gene expression response pattern): RN7SL471P (HMVECLs, TNFα): 5 | bin (gene expression response pattern): RNF152 (HMVECLs, TNFα): 5 | bin (gene expression response pattern): RP11-197M22.2 (HMVECLs, TNFα): 5 | bin (gene expression response pattern): RP11-244F12.3 (HMVECLs, TNFα): 5 | bin (gene expression response pattern): RP11-284F21.7 (HMVECLs, TNFα): 1 | bin (gene expression response pattern): RP11-309L24.2 (HMVECLs, TNFα): 5 | bin (gene expression response pattern): RP11-490B18.5 (HMVECLs, TNFα): 3 | bin (gene expression response pattern): RP11-758N13.1 (HMVECLs, TNFα): 5 | bin (gene expression response pattern): RPA4 (HMVECLs, TNFα): 5 | bin (gene expression response pattern): SEMA6D (HMVECLs, TNFα): 1 | bin (gene expression response pattern): SERTAD4 (HMVECLs, TNFα): 5 | bin (gene expression response pattern): SGK223 (HMVECLs, TNFα): 5 | bin (gene expression response pattern): SH3RF2 (HMVECLs, TNFα): 5 | bin (gene expression response pattern): SH3TC2 (HMVECLs, TNFα): 5 | bin (gene expression response pattern): SLC15A3 (HMVECLs, TNFα): 3 | bin (gene expression response pattern): SLC16A6 (HMVECLs, TNFα): 5 | bin (gene expression response pattern): SLC45A3 (HMVECLs, TNFα): 5 | bin (gene expression response pattern): SLCO4A1 (HMVECLs, TNFα): 5 | bin (gene expression response pattern): SMAD6 (HMVECLs, TNFα): 5 | bin (gene expression response pattern): SNORD12B (HMVECLs, TNFα): 3 | bin (gene expression response pattern): SOX18 (HMVECLs, TNFα): 5 | bin (gene expression response pattern): SSTR1 (HMVECLs, TNFα): 5 | bin (gene expression response pattern): TCHH (HMVECLs, TNFα): 3 | bin (gene expression response pattern): TGFA (HMVECLs, TNFα): 5 | bin (gene expression response pattern): TLR7 (HMVECLs, TNFα): 2 | bin (gene expression response pattern): TRIL (HMVECLs, TNFα): 1 | bin (gene expression response pattern): TRPC6 (HMVECLs, TNFα): 5 | bin (gene expression response pattern): TSLP (HMVECLs, TNFα): 3 | bin (gene expression response pattern): UNC5B-AS1 (HMVECLs, TNFα): 5 | bin (gene expression response pattern): VAV3 (HMVECLs, TNFα): 5 | bin (gene expression response pattern): VDR (HMVECLs, TNFα): 3 | bin (gene expression response pattern): Y_RNA (HMVECLs, TNFα): 3 | bin (gene expression response pattern): ZNF365 (HMVECLs, TNFα): 5 | bin (gene expression response pattern): ZNF467 (HMVECLs, TNFα): 5 | bin (gene expression response pattern): ZNF521 (HMVECLs, TNFα): 5 | bin (gene expression response pattern) (HPCA (ENSG00000121905)): 8 | bin (gene expression response pattern) (IFIH1 (ENSG00000115267)): 7 | bin (gene expression response pattern) (IL1A (ENSG00000115008)): 8 | bin (gene expression response pattern) (IL3RA (ENSG00000185291)): 7 | bin (gene expression response pattern) (IL12RB1 (ENSG00000096996)): 8 | bin (gene expression response pattern) (IRF8 (ENSG00000140968)): 7 | bin (gene expression response pattern) (KYNU (ENSG00000115919)): 7 | bin (gene expression response pattern) (LINC00092 (ENSG00000225194)): 7 | bin (gene expression response pattern) (LST1 (ENSG00000204482)): 7 | bin (gene expression response pattern) (LYPD6 (ENSG00000187123)): 7 | bin (gene expression response pattern) (MIR126 (ENSG00000199161)): 7 | bin (gene expression response pattern) (MOB3C (ENSG00000142961)): 7 | bin (gene expression response pattern) (MRGPRX4 (ENSG00000179817)): 7 | bin (gene expression response pattern) (NKD2 (ENSG00000145506)): 8 | bin (gene expression response pattern) (NKX3-1 (ENSG00000167034)): 8 | bin (gene expression response pattern) (OLR1 (ENSG00000173391)): 8 | bin (gene expression response pattern) (P2RX2 (ENSG00000187848)): 8 | bin (gene expression response pattern) (PARP14 (ENSG00000173193)): 7 | bin (gene expression response pattern) (PEXHG (ENSG00000104883)): 7 | bin (gene expression response pattern) (PRRT2 (ENSG00000167371)): 7 | bin (gene expression response pattern) (RCAN1 (ENSG00000159200)): 7 | bin (gene expression response pattern) (RND1 (ENSG00000172602)): 8 | bin (gene expression response pattern) (RP3-416H24.1 (ENSG00000257671)): 8 | bin (gene expression response pattern) (RP4-607I7.1 (ENSG00000255521)): 7 | bin (gene expression response pattern) (RP4-681N20.5 (ENSG00000275582)): 8 | bin (gene expression response pattern) (RP4-734G22.3 (ENSG00000272078)): 7 | bin (gene expression response pattern) (RP11-79H23.3 (ENSG00000261618)): 7 | bin (gene expression response pattern) (RP11-158I3.3 (ENSG00000269826)): 8 | bin (gene expression response pattern) (RP11-283G6.5 (ENSG00000255750)): 7 | bin (gene expression response pattern) (RP11-342K2.1 (ENSG00000279133)): 8 | bin (gene expression response pattern) (RP11-638I2.9 (ENSG00000258521)): 8 | bin (gene expression response pattern) (RP11-875011.2 (ENSG00000246130)): 7 | bin (gene expression response pattern) (SCUBE2 (ENSG00000175356)): 7 | bin (gene expression response pattern) (SFMBT2 (ENSG00000198879)): 7 | bin (gene expression response pattern) (SLC19A3 (ENSG00000135917)): 7 | bin (gene expression response pattern) (SLC26A9 (ENSG00000174502)): 8 | bin (gene expression response pattern) (SLC52A3 (ENSG00000101276)): 7 | bin (gene expression response pattern) (TMEM52B (ENSG00000165685)): 8 | bin (gene expression response pattern) (TNF (ENSG00000232810)): 8 | bin (gene expression response pattern) (TNIP3 (ENSG00000050730)): 7 | bin (gene expression response pattern) (TOX (ENSG00000198846)): 8 | bin (gene expression response pattern) (TP63 (ENSG00000073282)): 8 | bin (gene expression response pattern) (VCAM1 (ENSG00000162692)): 7
